Data from US20180344805A1, “GLYCOLIPID COMPOUNDS AND THEIR USES IN THE TREATMENT OF TUMOURS” (Agalimmune Limited (GB/GB), priority 2015, published 2018).

Tests used:
CHO-K1 cells [1] = assay: Anti-Gal Recruitment Assay; type: cell-based; conditions: CHO-K1 cells incubated with glycolipid 1 hour at 37° C.; monoclonal anti-Gal IgG1, FITC-conjugated anti-human IgG, flow cytometry; FIGS. 1 and 2
Protocol: CHO-K1 cells were harvested from cell culture flasks, counted and resuspended in PBS to a cell density of 5×10^6 cells/ml. Each glycolipid was serially diluted in PBS across nine 1.5 ml centrifuge tubes so that the final volume in the tubes was 100 μl. To each tube, 100 μl of the CHO-K1 cell suspension was added and the tubes incubated for 1 hour at 37° C. After an hour the cells were pelleted by centrifugation at 400 g for 3 minutes and resuspended in 500 μl of PBS+0.1% BSA. This was repeated twice more to wash the cells. After the final wash the cells were resuspended in 100 μl of monoclonal anti-Gal IgG1 diluted 1:8 in PBS+0.1% BSA. The tubes were incubated on ice for 30 minutes. After 30 minutes the cells were pelleted by centrifugation at 400 g for 3 minutes and resuspended in 500 μl of PBS+0.1% BSA. This was repeated twice more to wash the cells. After the final wash the cells were resuspended in 100 μl of FITC-conjugated mouse anti-human IgG (Biolegend) and the tubes incubated on ice for 30 minutes. After 30 minutes the cells were pelleted by centrifugation at 400 g for 3 minutes and resuspended in 500 μl of PBS+0.1% BSA. This was repeated twice more to wash the cells. […] After 5 minutes incubation on ice the cells were analysed on a Cytomics FC500 flow cytometer (Beckman Coulter). […]

CHO-K1 cells [2] = assay: Complement Dependent Cytotoxicity Assay; type: cell-based; conditions: for Lysis of glycolipid-labelled cells by human serum complement: CHO-K1 cells labelled with glycolipid, 50% human serum, FIGS. 3 to 5; for EC50: Cricetulus griseus, CHO-K1 cells labelled with glycolipid 1 hour at 37° C., then 50% human serum complement 1 hour at 37° C., cell viability by CellTiter-Glo
Protocol: CHO-K1 cells were harvested from cell culture flasks, counted and resuspended in PBS to a cell density of 5×10^6 cells/ml. Each glycolipid was serially diluted in PBS across nine 1.5 ml centrifuge tubes so that the final volume in the tubes was 100 μl. To each tube, 100 μl of the CHO-K1 cell suspension was added and the tubes incubated for 1 hour at 37° C. After an hour the tubes were placed on ice for 5 minutes and then the cells washed 3 times with 500 μl of ice-cold PBS. The cells were resuspended in a final volume of 250 μl of ice-cold PBS and 50 μl aliquots were transferred to duplicate wells of a 96 well plate. To each well containing cells 50 μl of 100% normal or heat-inactivated (30 minutes at 56° C.) human serum complement (Innovative Research) was added so that the final concentration of human serum was 50%. The plate was incubated at 37° C. for 1 hour, after which cell viability was measured using CellTiter-Glo reagent (Promega) read on a EnVision plate reader (Perkin Elmer).

For `CCCCCCCC/C=C\CCCCCCCC(=O)OCC(COP(=O)(O)OCCNC(=O)CCCCC(=O)NCC(=O)NCC(=O)N(CC(=O)O)CC(=O)NCC(=O)NCC(=O)N(CC(=O)O)CC(=O)NCCNC(=O)CN(CC(=O)O)C(=O)CNC(=O)CNC(=O)CN(CC(=O)O)C(=O)CNC(=O)CNC(=O)CCCCC(=O)NCCCO[C@@H]1OC(CO)[C@@H](O[C@@H]2OC(CO)[C@H](O)[C@H](O[C@H]3OC(CO)[C@H](O)[C@H](O)C3O)C2O)[C@H](O)C1NC(C)=O)OC(=O)CCCCCCC/C=C\CCCCCCCC` (some centres unmarked) [Example 1, Galili-CMG2-DOPE], the “Membrane incorporation and recruitment of anti-Gal antibody” value (CHO-K1 cells [1]) was “incorporates into the plasma membrane of CHO-K1 cells and presents the alpha-Gal epitope for recognition by anti-Gal antibodies”, the “Lysis of glycolipid-labelled cells by human serum complement” value (CHO-K1 cells [2]) was “are lysed by human serum complement” and the EC50 (CHO-K1 cells [2]) was 7.02 µM.
With `CCCCCCCC/C=C\CCCCCCCC(=O)OCC(COP(=O)(O)OCCNC(=O)CCCCC(=O)NCCCO[C@@H]1OC(CO)[C@@H](O[C@@H]2OC(CO)[C@H](O)C(O[C@H]3OC(CO)[C@H](O)C(O)C3NC(C)=O)C2O)C(O)C1NC(C)=O)OC(=O)CCCCCCC/C=C\CCCCCCCC` (some centres unmarked) [Example 3, GalNAcα1-3Galβ1-4GlcNAc-Ad-DOPE] the “Lysis of glycolipid-labelled cells by human serum complement” value (CHO-K1 cells [2]) was “are lysed by human serum complement” and the EC50 (CHO-K1 cells [2]) was 86.8 µM.
